In experiment [1] the test system is JAK1/TYK2 pSTAT5 (Tyr694/699) in THP-1 cell line. Put plainly: IFNa-stimulated JAK1/TYK2 pSTAT5 (Tyr694/699) inhibition cellular assay, AlphaLISA. Type of experiment: cell-based. To be noted: Homo sapiens; THP-1 cells, IFNa-stimulated, AlphaLISA (Assay B); read-out: Cellular_THP1_IFNa-pSTATS_TYK2. The procedure, abridged: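 pSTAT5 (Tyr694/699) in lysates quantified by AlphaLISA (615 nm) after 30 min IFNa stimulation (100 ng/mL stock) of THP-1 cells. The cells, 2e4 per well in HBSS, had first been exposed 1 h at 37° C. to eight 6-fold compound dilutions, 10000 down to 0.04 nM final. IC50 fitted by 4PL regression, bottom 0, Hill slope −1.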
On the technique in general: Alpha assays give light when donor and acceptor beads are brought close together.

For experiment [2], the target named is T1, TYK2 JH2 (Homo sapiens, UniProt P29597).
T1 construct: purchased DiscoverX (KINOMEscan KdELECT service); host or cells: E. coli BL21-derived (T7 phage display) or HEK-293
Put plainly: TYK2 JH2 binding assay (KINOMEscan KdELECT competitive binding). To be noted: TYK2 JH2 domain, KINOMEscan KdELECT (Assay A); read-out: Biochemical TYK2_DiscoverX_JH2_BND_Kd. The procedure, abridged:
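Test compounds were titrated in 11 three-fold steps against JH2 fragment captured on ligand-loaded magnetic beads, with 1 h incubation at room temperature and DMSO at 0.9%. Eluted kinase was quantified by qPCR, and Kd was fitted from the dose series.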

From patent publication US20240025906A1 (NEURON23, INC., priority 2022, published 2024) come the findings set out here.

Molecules are shown by their SMILES. A value given as a limit tells only on which side of the number the result lay.

T1 sequence (P29597 589-875 limits assumed): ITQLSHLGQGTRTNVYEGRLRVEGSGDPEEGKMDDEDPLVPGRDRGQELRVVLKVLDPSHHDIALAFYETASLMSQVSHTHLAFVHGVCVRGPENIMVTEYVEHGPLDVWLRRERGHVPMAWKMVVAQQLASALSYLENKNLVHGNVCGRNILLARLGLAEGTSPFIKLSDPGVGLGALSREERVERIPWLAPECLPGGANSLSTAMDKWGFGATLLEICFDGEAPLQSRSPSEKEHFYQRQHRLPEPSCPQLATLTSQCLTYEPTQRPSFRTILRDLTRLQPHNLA

Consider `CNc1ncc(-c2nc3cc(-c4ccn(C)n4)ccc3o2)c2cc(NC(=O)C3CC3)ncc12` [Example 939, N-(5-(5-(1-methyl-1H-pyrazol-3-yl)benzo[d]oxazol-2-yl)-8-(methylamino)-2,7-naphthyridin-3-yl)cyclopropanecarboxamide], for which the IC50 in experiment [1] was not above 500 nM. For the same compound, the Kd in experiment [2] was not above 100 nM.
For `CNc1ncc(-c2nc3cc(-c4cnn(C)n4)ccc3o2)c2cc(NC(=O)C3CC3)ncc12` [Example 940, N-(5-(5-(2-methyl-2H-1,2,3-triazol-4-yl)benzo[d]oxazol-2-yl)-8-(methylamino)-2,7-naphthyridin-3-yl)cyclopropanecarboxamide] the same measures were not above 500 nM and not above 100 nM.
For `CNc1ncc(-c2nc3cc(OCC(C)(C)F)ccc3o2)c2cc(NC(=O)C3CC3)ncc12` [Example 941, N-[5-[5-(2-fluoro-2-methyl-propoxy)-1,3-benzoxazol-2-yl]-8-(methylamino)-2,7-naphthyridin-3-yl]cyclopropanecarboxamide] the same measures were not above 500 nM and not above 100 nM.
For `CNc1ncc(-c2nc3cc(N4CCC(F)(F)C4)ccc3o2)c2cc(NC(=O)C3CC3)ncc12` [Example 942, N-(5-(5-(3,3-difluoropyrrolidin-1-yl)benzo[d]oxazol-2-yl)-8-(methylamino)-2,7-naphthyridin-3-yl)cyclopropanecarboxamide] the same measures were not above 500 nM and not above 100 nM.
As for `CNc1ncc(-c2nc3cc(N4CCC(F)C4)ccc3o2)c2cc(NC(=O)C3CC3)ncc12` (stereo not shown) [Example 943, N-(5-(5-(3-fluoropyrrolidin-1-yl)benzo[d]oxazol-2-yl)-8-(methylamino)-2,7-naphthyridin-3-yl)cyclopropanecarboxamide], the IC50 in experiment [1] was not above 500 nM. For the same compound, the Kd in experiment [2] is not above 100 nM.
The like results for `CNc1ncc(-c2nc3cc([C@]45C[C@H](CO4)C5)ccc3o2)c2cc(NC(=O)C3CC3)ncc12` [Example 946, N-(5-(5-((1s,4s)-2-oxabicyclo[2.1.1]hexan-1-yl)benzo[d]oxazol-2-yl)-8-(methylamino)-2,7-naphthyridin-3-yl)cyclopropanecarboxamide] were, in that order, not above 500 nM and not above 100 nM.
Regarding `CNc1ncc(-c2nc3cc(C4(C)CCCO4)ccc3o2)c2cc(NC(=O)C3CC3)ncc12` (stereo not shown) [Example 947, N-(8-(methylamino)-5-(5-(2-methyltetrahydrofuran-2-yl)benzo[d]oxazol-2-yl)-2,7-naphthyridin-3-yl)cyclopropanecarboxamide], the IC50 in experiment [1] is not above 500 nM. Moreover, in experiment [2], the Kd is not above 100 nM.
`CNc1ncc(-c2nc3cc([C@]4(C)CCCO4)ccc3o2)c2cc(NC(=O)C3CC3)ncc12` [Example 948, (S)—N-(8-(methylamino)-5-(5-(2-methyltetrahydrofuran-2-yl)benzo[d]oxazol-2-yl)-2,7-naphthyridin-3-yl)cyclopropanecarboxamide]: the IC50 in experiment [1] is not above 500 nM. Also, the Kd in experiment [2] was not above 100 nM.
For `CNc1ncc(C#Cc2ncccn2)c2cc(NC(=O)C3CC3)ncc12` [Example 950, N-(8-(methylamino)-5-(pyrimidin-2-ylethynyl)-2,7-naphthyridin-3-yl)cyclopropanecarboxamide] the same measures were not above 500 nM and not above 100 nM.
For `CNc1ncc(C#Cc2ccc(N3CCOCC3)cn2)c2cc(NC(=O)C3CC3)ncc12` [Example 951, N-(8-(methylamino)-5-((5-morpholinopyridin-2-yl)ethynyl)-2,7-naphthyridin-3-yl)cyclopropanecarboxamide] the same measures were not above 500 nM and not above 100 nM.
The like results for `CNc1ncc(C#Cc2ccc(-n3ccnn3)cn2)c2cc(NC(=O)C3CC3)ncc12` [Example 952, N-(5-((5-(1H-1,2,3-triazol-1-yl)pyridin-2-yl)ethynyl)-8-(methylamino)-2,7-naphthyridin-3-yl)cyclopropanecarboxamide] were, in that order, not above 500 nM and not above 100 nM.
On to `CNc1ncc(C#Cc2ccc(-n3nccn3)cn2)c2cc(NC(=O)C3CC3)ncc12` [Example 953, N-(5-((5-(2H-1,2,3-triazol-2-yl)pyridin-2-yl)ethynyl)-8-(methylamino)-2,7-naphthyridin-3-yl)cyclopropanecarboxamide], for which, in experiment [1], the IC50 is not above 500 nM. The Kd in experiment [2] was not above 100 nM.
The like results for `CNc1ncc(C#Cc2ccc(-n3cccn3)cn2)c2cc(NC(=O)C3CC3)ncc12` [Example 954, N-(5-((5-(1H-pyrazol-1-yl)pyridin-2-yl)ethynyl)-8-(methylamino)-2,7-naphthyridin-3-yl)cyclopropanecarboxamide] were, in that order, not above 500 nM and not above 100 nM.
For `CNc1ncc(C#Cc2ncccc2C2CC2)c2cc(NC(=O)C3CC3)ncc12` [Example 955, N-(5-((3-cyclopropylpyridin-2-yl)ethynyl)-8-(methylamino)-2,7-naphthyridin-3-yl)cyclopropanecarboxamide] the same measures were not above 500 nM and not above 100 nM.
With `CNc1ncc(C#Cc2ccc3c(c2)CCNC3)c2cc(NC(=O)C3CC3)ncc12` [Example 956, N-(8-(methylamino)-5-((1,2,3,4-tetrahydroisoquinolin-6-yl)ethynyl)-2,7-naphthyridin-3-yl)cyclopropanecarboxamide], the IC50 in experiment [1] is not above 500 nM. Besides, in experiment [2], the Kd was not above 100 nM.
The like results for `CNc1ncc(C#Cc2ccc(-c3cnn(C)n3)cc2)c2cc(NC(=O)C3CC3)ncc12` [Example 957, N-(5-((4-(2-methyl-2H-1,2,3-triazol-4-yl)phenyl)ethynyl)-8-(methylamino)-2,7-naphthyridin-3-yl)cyclopropanecarboxamide] were, in that order, not above 500 nM and not above 100 nM.
For `CNc1ncc(C#CC23CC(OC)(C2)C3)c2cc(NC(=O)C3CC3)ncc12` [Example 958, N-(5-((3-methoxybicyclo[1.1.1]pentan-1-yl)ethynyl)-8-(methylamino)-2,7-naphthyridin-3-yl)cyclopropanecarboxamide] the same measures were not above 500 nM and not above 100 nM.
For `CNc1ncc(C#Cc2sc(C(C)=O)cc2C)c2cc(NC(=O)C3CC3)ncc12` [Example 959, N-(5-((5-acetyl-3-methylthiophen-2-yl)ethynyl)-8-(methylamino)-2,7-naphthyridin-3-yl)cyclopropanecarboxamide] the same measures were not above 500 nM and not above 100 nM.
Regarding `CNc1ncc(C#Cc2sccc2CO)c2cc(NC(=O)C3CC3)ncc12` [Example 960, N-(5-((3-(hydroxymethyl)thiophen-2-yl)ethynyl)-8-(methylamino)-2,7-naphthyridin-3-yl)cyclopropanecarboxamide], the IC50 in experiment [1] is not above 500 nM. Moreover, the Kd in experiment [2] is not above 100 nM.
For the compound `CCc1nc(C)c(C#Cc2cnc(NC)c3cnc(NC(=O)C4CC4)cc23)s1` [Example 961, N-(5-((2-ethyl-4-methylthiazol-5-yl)ethynyl)-8-(methylamino)-2,7-naphthyridin-3-yl)cyclopropanecarboxamide], in experiment [1], the IC50 was not above 500 nM. In addition, the Kd in experiment [2] was not above 100 nM.
The like results for `CNc1ncc(C#Cc2ccc(-n3c(=O)ccn3C)cc2)c2cc(NC(=O)C3CC3)ncc12` [Example 962, N-[8-(methylamino)-5-[2-[4-(2-methyl-5-oxo-pyrazol-1-yl)phenyl]ethynyl]-2,7-naphthyridin-3-yl]cyclopropanecarboxamide] were, in that order, not above 500 nM and not above 100 nM.
For `CNc1ncc(C#Cc2ncc(OC)cc2CF)c2cc(NC(=O)C3CC3)ncc12` [Example 963, N-[5-[2-[3-(fluoromethyl)-5-methoxy-2-pyridyl]ethynyl]-8-(methylamino)-2,7-naphthyridin-3-yl]cyclopropanecarboxamide] the same measures were not above 500 nM and not above 100 nM.
For `CNc1ncc(C#Cc2ccc(COC)cn2)c2cc(NC(=O)C3CC3)ncc12` [Example 964, N-[5-[2-[5-(methoxymethyl)-2-pyridyl]ethynyl]-8-(methylamino)-2,7-naphthyridin-3-yl]cyclopropanecarboxamide] the same measures were not above 500 nM and not above 100 nM.
`CNc1ncc(C#Cc2ccc(OC)cc2CO)c2cc(NC(=O)C3CC3)ncc12` [Example 965, N-[5-[2-[2-(hydroxymethyl)-4-methoxy-phenyl]ethynyl]-8-(methylamino)-2,7-naphthyridin-3-yl]cyclopropanecarboxamide]: the IC50 in experiment [1] is not above 500 nM. Also, in experiment [2], the Kd is not above 100 nM.
The like results for `CNc1ncc(C#Cc2ccc(Oc3nccn3C)cc2)c2cc(NC(=O)C3CC3)ncc12` [Example 966, N-(5-((4-((1-methyl-1H-imidazol-2-yl)oxy)phenyl)ethynyl)-8-(methylamino)-2,7-naphthyridin-3-yl)cyclopropanecarboxamide] were, in that order, not above 500 nM and not above 100 nM.
Take `CNc1ncc(C#Cc2ncc(OC)cc2CO)c2cc(NC(=O)C3CC3)ncc12` [Example 967, N-[5-[2-[3-(hydroxymethyl)-5-methoxy-2-pyridyl]ethynyl]-8-(methylamino)-2,7-naphthyridin-3-yl]cyclopropanecarboxamide]: the IC50 in experiment [1] is not above 500 nM. In addition, in experiment [2], the Kd is not above 100 nM.
